What all share (assay): microbe, parasite or virus in culture
What all share (assay type): functional

In test [1] the test system is Pseudomonas aeruginosa. The note with it: ATCC 50071, time 48 hrs.
In test [2] the test system is Listeria monocytogenes. The conditions noted are these: ATCC 7644, time 48 hrs.
Test [3] deals with Staphylococcus aureus. The note with it: ATCC 25923, time 48 hrs.
For test [4], the system named is Pseudomonas aeruginosa. The conditions noted are these: ATCC 50071, time 48 hrs. This is another data set of the same source.
The subject of test [5] is Pseudomonas aeruginosa. The conditions noted are these: ATCC 50071, time 48 hrs. This is another data set of the same source.
Test [6] relates to Acinetobacter baumannii. The conditions noted are these: ATCC 19606 = CIP 70.34 = JCM 6841, time 48 hrs.
In test [7] the test system is Staphylococcus aureus. The note with it: ATCC 25923, time 48 hrs. The source holds these as a separate data set.
Test [8] deals with Escherichia coli. The conditions noted are these: DSM 8579, time 48 hrs.
In test [9] the test system is Escherichia coli. The note with it: DSM 8579, time 48 hrs. This is another data set of the same source.
Test [10] relates to Listeria monocytogenes. The note with it: ATCC 7644, time 48 hrs. This is another data set of the same source.
Test [11] relates to Pectobacterium carotovorum. The conditions noted are these: ATCC 15713, time 48 hrs.
The test system of test [12] is Acinetobacter baumannii. The note with it: ATCC 19606 = CIP 70.34 = JCM 6841, time 48 hrs. The source holds these as a separate data set.
Test [13] concerns Acinetobacter baumannii. The note with it: ATCC 19606 = CIP 70.34 = JCM 6841, time 48 hrs. The source holds these as a separate data set.
Test [14] relates to Pectobacterium carotovorum. The note with it: ATCC 15713, time 48 hrs. This is another data set of the same source.
Test [15] relates to Listeria monocytogenes. The conditions noted are these: ATCC 7644, time 48 hrs. This is another data set of the same source.
The test system of test [16] is Acinetobacter baumannii. The conditions noted are these: ATCC 19606 = CIP 70.34 = JCM 6841, time 48 hrs. This is another data set of the same source.
For test [17], the system named is Escherichia coli. The note with it: DSM 8579, time 48 hrs. This is another data set of the same source.
Test [18] deals with Staphylococcus aureus. The conditions noted are these: ATCC 25923, time 48 hrs. This is another data set of the same source.
The subject of test [19] is Pseudomonas aeruginosa. The conditions noted are these: ATCC 50071, time 48 hrs. This is another data set of the same source.
For test [20], the system named is Escherichia coli. The note with it: DSM 8579, time 48 hrs. This is another data set of the same source.
For test [21], the system named is Listeria monocytogenes. The note with it: ATCC 7644, time 48 hrs. This is another data set of the same source.
Test [22] relates to Staphylococcus aureus. The conditions noted are these: ATCC 25923, time 48 hrs. This is another data set of the same source.
Test [23] has as its system Pectobacterium carotovorum. The note with it: ATCC 15713, time 48 hrs. This is another data set of the same source.
In test [24] the test system is Pectobacterium carotovorum. The note with it: ATCC 15713, time 48 hrs. This is another data set of the same source.

For six compounds, inhibition results are on record in ChEMBL document CHEMBL4813932, “Terpenoid Constituents of Perovskia artemisioides Aerial Parts with Inhibitory Effects on Bacterial Biofilm Growth” (2021).

One may read the inhibition as how much of the control response was suppressed.

Turning to `CCCCCC` [HEXANE], the inhibition at 8 µg/mL with Pseudomonas aeruginosa [1] amounted to 97.9%; in the test with Staphylococcus aureus [3], 93.7%; with Listeria monocytogenes [10], 77.3%; with Acinetobacter baumannii [13] it was 48.5%; in the test with Listeria monocytogenes [15], 98.3%; in the test with Acinetobacter baumannii [16], 34.7%. The inhibition at 8 µg/mL came out at 99.2% in the test on Staphylococcus aureus [18], 97% in the test with Pseudomonas aeruginosa [19], 97.8% in test [23] and 49.4% in [24]. The inhibition at 4 µg/mL with Listeria monocytogenes [2] was determined as 92.4%; in the test on Pseudomonas aeruginosa [4], 94.8%; with Pseudomonas aeruginosa [5] it was 95.5%; in the test on Acinetobacter baumannii [6], 25.2%; in the test on Staphylococcus aureus [7], 71.8%; in test [11] it was 45.5%. The inhibition at 4 µg/mL in the test with Acinetobacter baumannii [12] came out at 35.7%; in test [14], 94.8%; with Listeria monocytogenes [21] it was 49.1%; with Staphylococcus aureus [22] it was 98.6%. The inhibition at 40 µg/mL with Escherichia coli [8] worked out at 87.6%; in the test on Escherichia coli [20] it was 74.2%. Further, the inhibition at 80 µg/mL in the test with Escherichia coli [9] worked out at 78%; with Escherichia coli [17] it was 95.8%.

In the case of `CO[C@@H]1c2cc(C(C)C)c(O)c(O)c2[C@@]23CCCC(C)(C)[C@@H]2[C@@H]1OC3=O`, the inhibition at 8 µg/mL in the test on Pseudomonas aeruginosa [1] came to 76.5%; with Staphylococcus aureus [3] it was 91.8%; in the test with Listeria monocytogenes [10], 29.7%; with Acinetobacter baumannii [13] it was 21%; in the test with Listeria monocytogenes [15] it was 0%; with Acinetobacter baumannii [16], 38.8%. Also, the inhibition at 8 µg/mL came to 34.6% in the test with Staphylococcus aureus [18], 1.5% in the test with Pseudomonas aeruginosa [19], 67.7% in test [23] and 5.7% in test [24]. Also, the inhibition at 4 µg/mL worked out at 0% in the test with Listeria monocytogenes [2]; 55.8% with Pseudomonas aeruginosa [4]; 0% with Pseudomonas aeruginosa [5]; 49.2% with Acinetobacter baumannii [6]; 34.4% in the test on Staphylococcus aureus [7]; 4.4% in test [11]. Also, the inhibition at 4 µg/mL in the test with Acinetobacter baumannii [12] was 12.7%; in [14], 35.5%; with Listeria monocytogenes [21] it was 23.6%; with Staphylococcus aureus [22], 45.3%. Also, the inhibition at 40 µg/mL in the test on Escherichia coli [8] and in the test with Escherichia coli [20] was 0% in each case. Besides, the inhibition at 80 µg/mL with Escherichia coli [9] was 6.1%; in the test with Escherichia coli [17], 0%.

With `CC(C)c1cc2c(c(O)c1O)[C@@]13CCCC(C)(C)[C@@H]1[C@H](OC3=O)[C@@H]2O` [EPIROSMANOL], the inhibition at 8 µg/mL with Pseudomonas aeruginosa [1] was 74.8%; with Staphylococcus aureus [3] it was 81.7%; with Listeria monocytogenes [10] it was 55.6%; in the test with Acinetobacter baumannii [13] it was 56.9%; with Listeria monocytogenes [15], 63.4%; with Acinetobacter baumannii [16], 11.1%. Besides, the inhibition at 8 µg/mL with Staphylococcus aureus [18] is 23.6%; in the test with Pseudomonas aeruginosa [19], 9.2%; in [23], 53.8%; in test [24], 56.3%. The inhibition at 4 µg/mL was found to be 0% with Listeria monocytogenes [2]; 70.7% in the test on Pseudomonas aeruginosa [4]; 0% in the test on Pseudomonas aeruginosa [5]; 8.9% in the test with Acinetobacter baumannii [6]; 68.4% with Staphylococcus aureus [7]; 32.5% in test [11]. Also, the inhibition at 4 µg/mL in the test on Acinetobacter baumannii [12] came to 26.3%; in test [14] it was 33.6%; in the test on Listeria monocytogenes [21] it was 24.7%; in the test on Staphylococcus aureus [22], 0%. Also, the inhibition at 40 µg/mL with Escherichia coli [8] and with Escherichia coli [20] was 0% throughout. Besides, the figures for the inhibition at 80 µg/mL with Escherichia coli [9] and in the test on Escherichia coli [17] were 0% and 11.3%, respectively.

As for `CC(C)c1cc2c(c(O)c1O)[C@@]1(C(=O)O)CCCC(C)(C)[C@@H]1CC2` [CARNOSIC ACID], the inhibition at 8 µg/mL in the test with Pseudomonas aeruginosa [1] is 83%; with Staphylococcus aureus [3], 83.7%; with Listeria monocytogenes [10], 55.6%; with Acinetobacter baumannii [13], 91.2%; in the test on Listeria monocytogenes [15], 0%; in the test with Acinetobacter baumannii [16] it was 57%. Moreover, the inhibition at 8 µg/mL with Staphylococcus aureus [18] came to 35.5%; in the test on Pseudomonas aeruginosa [19], 42.7%; in test [23], 25.8%; in test [24], 47.3%. For the same compound, the inhibition at 4 µg/mL worked out at 0% in the test with Listeria monocytogenes [2]; 51.7% in the test on Pseudomonas aeruginosa [4]; 27.7% in the test with Pseudomonas aeruginosa [5]; 36.3% in the test with Acinetobacter baumannii [6]; 64.1% with Staphylococcus aureus [7]; 41.3% in test [11]. The inhibition at 4 µg/mL with Acinetobacter baumannii [12] came out at 18.9%; in [14], 43.6%; with Listeria monocytogenes [21] it was 33.3%; with Staphylococcus aureus [22] it was 33.5%. Besides, the inhibition at 40 µg/mL was found to be 60% in the test on Escherichia coli [8] and 2.7% in the test on Escherichia coli [20]. Further, the inhibition at 80 µg/mL with Escherichia coli [9] was 10.7%; in the test on Escherichia coli [17], 78.5%.

As to `CC(C)c1cc2c(c(O)c1O)[C@@]13CCCC(C)(C)[C@@H]1[C@@H](O)[C@@H]2OC3=O` [ISOROSMANOL], the inhibition at 8 µg/mL with Pseudomonas aeruginosa [1] stood at 80.5%; with Staphylococcus aureus [3], 56.2%; in the test on Listeria monocytogenes [10], 25.2%; with Acinetobacter baumannii [13] it was 43.9%; in the test with Listeria monocytogenes [15], 63.9%; in the test with Acinetobacter baumannii [16], 48.5%. The inhibition at 8 µg/mL in the test with Staphylococcus aureus [18] came to 17%; in the test on Pseudomonas aeruginosa [19] it was 14.7%; in [23], 66.9%; in test [24], 62.8%. Moreover, the inhibition at 4 µg/mL with Listeria monocytogenes [2] was found to be 25%; in the test on Pseudomonas aeruginosa [4], 75.4%; with Pseudomonas aeruginosa [5], 0%; in the test with Acinetobacter baumannii [6] it was 2.5%; in the test on Staphylococcus aureus [7] it was 0%; in [11], 56.4%. The inhibition at 4 µg/mL worked out at 13.2% in the test on Acinetobacter baumannii [12], 66.3% in test [14], 16.2% with Listeria monocytogenes [21] and 0% in the test with Staphylococcus aureus [22]. In addition, the inhibition at 40 µg/mL in the test on Escherichia coli [8] worked out at 42.9%; with Escherichia coli [20], 42.2%. Further, the inhibition at 80 µg/mL with Escherichia coli [9] was 52.1%; with Escherichia coli [17], 53%.

On to `CC(C)c1cc2c(c(O)c1O)C[C@@]1(O)[C@@H](O)CCC(C)(C)[C@@H]1CC2`, for which the inhibition at 8 µg/mL in the test on Pseudomonas aeruginosa [1] stood at 65.7%; in the test on Staphylococcus aureus [3] it was 79.7%; in the test with Listeria monocytogenes [10], 13.1%; with Acinetobacter baumannii [13], 51.7%; in the test with Listeria monocytogenes [15], 0%; with Acinetobacter baumannii [16] it was 96.7%. Besides, the inhibition at 8 µg/mL in the test with Staphylococcus aureus [18] was determined as 78.2%; in the test with Pseudomonas aeruginosa [19], 0%; in test [23], 0%; in test [24], 1.5%. The inhibition at 4 µg/mL came out at 0% with Listeria monocytogenes [2]; 33.4% in the test with Pseudomonas aeruginosa [4]; 0% in the test on Pseudomonas aeruginosa [5]; 0% in the test with Acinetobacter baumannii [6]; 39.3% in the test with Staphylococcus aureus [7]; 0% in test [11]. Besides, the inhibition at 4 µg/mL with Acinetobacter baumannii [12] came to 48.6%; in test [14], 0%; with Listeria monocytogenes [21], 9.6%; in the test with Staphylococcus aureus [22], 75.8%. Moreover, the inhibition at 40 µg/mL with Escherichia coli [8] and with Escherichia coli [20] was 0% each time. The inhibition at 80 µg/mL with Escherichia coli [9] and with Escherichia coli [17] was 0% each time.
